pIC50: −log10 of the molar value. Like-named read-outs stand apart in the source and are kept apart here.
Legend:
VIM-1 = VIM-1 (Pseudomonas aeruginosa, UniProt A0A0F7KYQ8); experiment: Enzyme activity: determination of IC50, fluorescence assay with CCF2-FA substrate; format: biochemical; settings: CCF2-FA 1.25 μM, 2 hours at 25° C., read-out: VIM1 IC50
Method in brief: (§1)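 Enzyme at 1 pM (NDM-1), 2 pM (IMP-1) or 30 pM (VIM-1) was incubated with inhibitor (20 μM to 0.00063 μM) and 1.25 μM CCF2-FA in 100 mM KH2PO4 pH 7, 0.005% Tween-20, 10 μM ZnSO4 for 2 hours at 25° C. Fluorescence was read at ex 405/em 460 nm; IC50 from 4-parameter fit.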

IMP-1 = IMP-1 (Serratia marcescens, UniProt P52699); experiment: as above; format: biochemical; settings: CCF2-FA 1.25 μM, 2 hours at 25° C., read-out: IMP1 IC50
Method in brief: as §1

NDM-1 = NDM-1 (Klebsiella pneumoniae, UniProt C7C422); experiment: as above; format: biochemical; settings: CCF2-FA 1.25 μM, 2 hours at 25° C., read-out: NDM1 IC50
Method in brief: as §1

[1] = tested on: Escherichia coli expressing NDM-1 (CLB30016); experiment: Antibiotic potentiation activity: synergistic concentration (MITC95) with imipenem, growth by OD600; format: cell-based
Method in brief: (§2)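 Colonies from overnight agar plates (35 °C) were suspended in saline and diluted 1:100 into 1.1× CAMHB. Inhibitor (final 200 μM to 0.195 μM) was combined with imipenem at 1 or 4 μg/ml, incubated 22–24 h at 35 °C, and absorbance read; MITC95 is the lowest inhibitor concentration giving 95% growth inhibition.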

[2] = tested on: Serratia marcescens expressing IMP-1 (CL5741); experiment: as above; format: cell-based
Method in brief: as §2

[3] = tested on: Klebsiella pneumoniae expressing VIM-1 (IHMA599644); experiment: as above; format: cell-based
Method in brief: as §2

[4] = E. coli CLB30016 (NDM-1), 95% inhibition of growth
[5] = S. marcescens CL5741 (IMP-1), 95% inhibition of growth
[6] = K. pneumoniae IHMA599644 (VIM-1), 95% inhibition of growth
[7] = 95% inhibition of bacterial growth, strain CLB30016
[8] = 95% inhibition of bacterial growth, strain CL5741
[9] = 95% inhibition of bacterial growth, strain IHMA599644

Sequence of NDM-1 (C7C422 29-270, looked up, species assumed): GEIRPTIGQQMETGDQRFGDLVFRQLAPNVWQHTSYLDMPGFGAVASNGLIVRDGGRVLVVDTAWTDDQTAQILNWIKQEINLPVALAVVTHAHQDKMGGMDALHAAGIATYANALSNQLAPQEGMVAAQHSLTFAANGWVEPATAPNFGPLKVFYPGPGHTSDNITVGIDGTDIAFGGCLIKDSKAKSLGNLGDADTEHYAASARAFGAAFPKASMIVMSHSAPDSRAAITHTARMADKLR
Sequence of IMP-1 (P52699 19-246, looked up, species assumed): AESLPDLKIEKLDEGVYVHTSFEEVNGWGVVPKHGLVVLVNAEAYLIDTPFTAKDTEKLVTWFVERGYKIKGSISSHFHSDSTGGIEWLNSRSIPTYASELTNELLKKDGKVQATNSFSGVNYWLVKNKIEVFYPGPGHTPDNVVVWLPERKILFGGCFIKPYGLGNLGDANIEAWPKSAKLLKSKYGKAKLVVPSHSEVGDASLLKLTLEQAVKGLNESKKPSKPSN

Compound | pIC50 (VIM-1; VIM-1 enzyme 30 pM) | pIC50 (IMP-1; IMP-1 enzyme 2 pM) | pIC50 (NDM-1; NDM-1 enzyme 1 pM) | NDM1 EC30016 MITC95 [1, 4] | IMP1 SM5741 MITC95 [2, 5] | VIM1 KP599644 MITC95 [3, 6] | pIC50 (VIM-1; enzyme 30 pM) | pIC50 (IMP-1; enzyme 2 pM) | pIC50 (NDM-1; enzyme 1 pM) | NDM1 EC30016 MITC95 [1, 7] | IMP1 SM5741 MITC95 [2, 8] | VIM1 KP599644 MITC95 [3, 9]
CC(C)(C)[C@H](C(=O)O)C(Cc1ccc(N)nc1)c1nnn[nH]1 (stereo partly drawn) [Example 420, (2R,3S)-4-(6-aminopyridin-3-yl)-2-(tert-butyl)-3-(1H-tetrazol-5-yl)butanoic acid] | 7.72 | 7.29 | 7.14 | 0.3906 µM | 1.563 µM | 2.344 µM |  |  |  |  |  | 
CCC[C@H](C(=O)O)[C@H](Cc1ccnc(N)c1)c1nnn[nH]1 [Example 118, (2S)-2-[(1S)-2-(2-aminopyridin-4-yl)-1-(1H-tetrazol-5-yl)ethyl]pentanoic acid] |  |  |  |  |  |  | 8.00 | < 4.70 | 5.96 | 2.3 µM | 200 µM | 6.2 µM
CCC[C@H](C(=O)O)[C@H](Cc1ccc(NC2CCCN(CCC)C2)cc1)c1nn[nH]n1 (stereo partly drawn) [Example 223, (2S)-2-[(1S)-2-{4-[(1-propylpiperidin-3-yl)amino]phenyl}-1-(2H-tetrazol-5-yl)ethyl]pentanoic acid] |  |  |  |  |  |  | 7.15 | 5.89 | 6.30 | 38 µM | 25 µM | 75 µM
CC(C)C[C@H](C(=O)O)[C@H](Cc1ccc(N2CCCC(C(C)(C)N)C2)nc1)c1nnn[nH]1 (stereo partly drawn) [Example 322, (2S)-2-[(1S)-2-{6-[3-(1-amino-1-methylethyl)piperidin-1-yl]pyridin-3-yl}-1-(1H-tetrazol-5-yl)ethyl]-4-methylpentanoic acid] | 7.96 | 6.26 | 6.47 | 18.8 µM | 25 µM | 50 µM |  |  |  |  |  | 
CC(C)C[C@H](C(=O)O)[C@H](Cc1ccc(N)nc1)c1nnn[nH]1 [Example 112, 2-amino-5-((2S,3S)-3-carboxy-5-methyl-2-(2H-tetrazol-5-yl)hexyl)pyridin-1-ium 2,2,2-trifluoroacetate] |  |  |  |  |  |  | 8.31 | 6.24 | 6.96 | 0.54 µM | 11 µM | 5.5 µM
CCC[C@H](C(=O)[O-])[C@H](Cc1ccc(C2CC[N+](C)(C)CC2)cc1)c1nnn[nH]1 [Example 294, (S)-2-((S)-2-(4-(1,1-dimethylpiperidin-1-ium-4-yl)phenyl)-1-(1H-tetrazol-5-yl)ethyl)pentanoate] | 7.12 | 6.16 | 6.77 | 12.5 µM | 9.4 µM | 25 µM |  |  |  |  |  | 
O=C(O)[C@@H](CC(F)(F)F)[C@H](Cc1ccc(NCCO)nc1)c1nnn[nH]1 [Example 436, (S)-4,4,4-trifluoro-2-((S)-2-(6-((2-hydroxyethyl)amino)pyridin-3-yl)-1-(1H-tetrazol-5-yl)ethyl)butanoic acid] | 7.27 | 5.08 | 5.98 | 2.344 µM | 100 µM | 25 µM |  |  |  |  |  | 
CC(C)[C@H](C(=O)O)[C@H](Cc1ccc(N)cn1)c1nnn[nH]1 [Example 125, (2S,3S)-4-(5-aminopyridin-2-yl)-2-isopropyl-3-(1H-tetrazol-5-yl)butanoic acid] |  |  |  |  |  |  | 6.62 | 4.92 | 6.77 | 0.39 µM | 75 µM | 12.5 µM
CCC[C@H](C(=O)O)[C@H](Cc1ccc(-c2ccc(N)nc2)cn1)c1nnn[nH]1 [Example 167, (2S)-2-[(1S)-2-(6′-amino-3,3′-bipyridin-6-yl)-1-(1H-tetrazol-5-yl)ethyl]pentanoic acid] |  |  |  |  |  |  | 6.85 | 5.24 | 6.70 | 9.4 µM | >200 µM | 100 µM
CCC[C@H](C(=O)O)[C@H](Cc1ccccc1-c1ccc(C(N)=O)cc1)c1nn[nH]n1 [Example 394, (2S)-2-[(1S)-2-(4′-carbamoylbiphenyl-2-yl)-1-(2H-tetrazol-5-yl)ethyl]pentanoic acid] | 8.41 | 6.35 | 8.66 | 4.7 µM | 25 µM | 38 µM |  |  |  |  |  | 
